# Reference: patent US8580794B2 (AbbVie Inc., priority 2009, dated 2013)
# pKi: −log10 of the molar value.
# Target: GST-Bc1-2 (Homo sapiens, UniProt P10415)
# Assay: Time Resolved-Fluorescence Resonance Energy Transfer (TR-FRET) Bcl-2 binding assay with F-Bak peptide probe
# Conditions: GST-Bcl-2 1 nM, F-Bak probe 100 nM, Tb-anti-GST 1 nM; '<' = below limit of detection; read-out: TR-FRET Bcl-2 Binding Ki
# Sequence of GST-Bc1-2 (P10415 whole entry): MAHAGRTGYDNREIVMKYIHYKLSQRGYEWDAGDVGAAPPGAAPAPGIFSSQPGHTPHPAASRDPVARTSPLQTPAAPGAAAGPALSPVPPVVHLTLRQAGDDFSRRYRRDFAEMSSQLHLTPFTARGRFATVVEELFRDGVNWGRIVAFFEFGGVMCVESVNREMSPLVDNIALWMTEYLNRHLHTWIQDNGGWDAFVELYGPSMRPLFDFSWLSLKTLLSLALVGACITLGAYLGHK
row,SMILES,pKi
1,"CC(C)c1cc(S(=O)(=O)NC(=O)c2ccc(N3CCN(CC4=C(c5ccc(Cl)cc5)CC(C)(C)CC4)CC3)cc2Oc2cnc3[nH]ccc3c2)cnc1OCC1CCOCC1 [Example 85, 4-(4-{[2-(4-chlorophenyl)-4,4-dimethylcyclohex-1-en-1-yl]methyl}piperazin-1-yl)-N-{[5-isopropyl-6-(tetrahydro-2H-pyran-4-ylmethoxy)pyridin-3-yl]sulfonyl}-2-(1H-pyrrolo[2,3-b]pyridin-5-yloxy)benzamide]",9.41
2,"CC(=O)N1CCCC(CNc2ccc(S(=O)(=O)NC(=O)c3ccc(N4CCN(CC5=C(c6ccc(Cl)cc6)CC(C)(C)CC5)CC4)cc3Oc3cnc4[nH]ccc4c3)cc2[N+](=O)[O-])C1 (centres unmarked) [Example 148, N-[(4-{[(1-acetylpiperidin-3-yl)methyl]amino}-3-nitrophenyl)sulfonyl]-4-(4-{[2-(4-chlorophenyl)-4,4-dimethylcyclohex-1-en-1-yl]methyl}piperazin-1-yl)-2-(1H-pyrrolo[2,3-b]pyridin-5-yloxy)benzamide]",> 11.00
3,"CC1(C)CCC(CN2CCN(c3ccc(C(=O)NS(=O)(=O)c4ccc(O[C@H]5CC[C@H](N6CCOCC6)CC5)c([N+](=O)[O-])c4)c(Oc4cnc5[nH]ccc5c4)c3)CC2)=C(c2ccc(Cl)cc2)C1 [Example 60, Trans-4-(4-{[2-(4-chlorophenyl)-4,4-dimethylcyclohex-1-en-1-yl]methyl}piperazin-1-yl)-N-({4-[(4-morpholin-4-ylcyclohexyl)oxy]-3-nitrophenyl}sulfonyl)-2-(1H-pyrrolo[2,3-b]pyridin-5-yloxy)benzamide]",> 11.00
4,"CC1(C)CCCC(CN2CCN(c3ccc(C(=O)NS(=O)(=O)c4ccc(NCC5CCOCC5)c([N+](=O)[O-])c4)c(Oc4cnc5[nH]ccc5c4)c3)CC2)=C1c1ccc(Cl)cc1 [Example 150, 4-(4-{[2-(4-chlorophenyl)-3,3-dimethylcyclohex-1-en-1-yl]methyl}piperazin-1-yl)-N-({3-nitro-4-[(tetrahydro-2H-pyran-4-ylmethyl)amino]phenyl}sulfonyl)-2-(1H-pyrrolo[2,3-b]pyridin-5-yloxy)benzamide]",> 11.00
5,"CN1CCC(COc2ccc(S(=O)(=O)NC(=O)c3ccc(N4CCN(CC5=C(c6ccc(Cl)cc6)CC(C)(C)CC5)CC4)cc3Oc3cnc4[nH]ccc4c3)cc2[N+](=O)[O-])CC1 [Example 48, 4-(4-{[2-(4-chlorophenyl)-4,4-dimethylcyclohex-1-en-1-yl]methyl}piperazin-1-yl)-N-({4-[(1-methylpiperidin-4-yl)methoxy]-3-nitrophenyl}sulfonyl)-2-(1H-pyrrolo[2,3-b]pyridin-5-yloxy)benzamide]",> 11.00
6,"CC1(C)CCC(CN2CCN(c3ccc(C(=O)NS(=O)(=O)c4ccc(N5CCC(N6CCOCC6)CC5)c([N+](=O)[O-])c4)c(Oc4cnc5[nH]ccc5c4)c3)CC2)=C(c2ccc(Cl)cc2)C1 [Example 223, 4-(4-{[2-(4-chlorophenyl)-4,4-dimethylcyclohex-1-en-1-yl]methyl}piperazin-1-yl)-N-({4-[4-(morpholin-4-yl)piperidin-1-yl]-3-nitrophenyl}sulfonyl)-2-(1H-pyrrolo[2,3-b]pyridin-5-yloxy)benzamide]",10.28
7,"CC1(C)CCC(CN2CCN(c3ccc(C(=O)NS(=O)(=O)c4ccc(NCC5CN(C(CF)CF)C5)c([N+](=O)[O-])c4)c(Oc4cnc5[nH]ccc5c4)c3)CC2)=C(c2ccc(Cl)cc2)C1 [Example 161, 4-(4-{[2-(4-chlorophenyl)-4,4-dimethylcyclohex-1-en-1-yl]methyl}piperazin-1-yl)-N-({4-[({1-[2-fluoro-1-(fluoromethyl)ethyl]azetidin-3-yl}methyl)amino]-3-nitrophenyl}sulfonyl)-2-(1H-pyrrolo[2,3-b]pyridin-5-yloxy)benzamide]",> 11.00
8,"CC1(C)CCC(CN2CCN(c3ccc(C(=O)NS(=O)(=O)c4ccc(NCC5CCC6(CC5)COC6)c([N+](=O)[O-])c4)c(Oc4cnc5[nH]ccc5c4)c3)CC2)=C(c2ccc(Cl)cc2)C1 [Example 365, 4-(4-{[2-(4-chlorophenyl)-4,4-dimethylcyclohex-1-en-1-yl]methyl}piperazin-1-yl)-N-({3-nitro-4-[(2-oxaspiro[3.5]non-7-ylmethyl)amino]phenyl}sulfonyl)-2-(1H-pyrrolo[2,3-b]pyridin-5-yloxy)benzamide]",> 11.00
9,"CN(C)CC(=O)N1CCOC(CNc2ccc(S(=O)(=O)NC(=O)c3ccc(N4CCN(CC5=C(c6ccc(Cl)cc6)CC(C)(C)CC5)CC4)cc3Oc3cnc4[nH]ccc4c3)cc2[N+](=O)[O-])C1 (centres unmarked) [Example 215, 4-(4-{[2-(4-chlorophenyl)-4,4-dimethylcyclohex-1-en-1-yl]methyl}piperazin-1-yl)-N-{[4-({[4-(N,N-dimethylglycyl)morpholin-2-yl]methyl}amino)-3-nitrophenyl]sulfonyl}-2-(1H-pyrrolo[2,3-b]pyridin-5-yloxy)benzamide]",> 11.00
10,"O=C(NS(=O)(=O)c1ccc(OCC2(F)CCOCC2)c(Cl)c1)c1ccc(N2CCN(CC3=C(c4ccc(Cl)cc4)CCC4(CCN(C5COC5)CC4)C3)CC2)cc1Oc1cnc2[nH]ccc2c1 [Example 325, N-({3-chloro-4-[(4-fluorotetrahydro-2H-pyran-4-yl)methoxy]phenyl}sulfonyl)-4-(4-{[9-(4-chlorophenyl)-3-(oxetan-3-yl)-3-azaspiro[5.5]undec-8-en-8-yl]methyl}piperazin-1-yl)-2-(1H-pyrrolo[2,3-b]pyridin-5-yloxy)benzamide]",> 11.00
11,"CC1(C)CCC(CN2CCN(c3ccc(C(=O)NS(=O)(=O)c4cnc(OCCC5CCOCC5)c(C#N)c4)c(Oc4cnc5[nH]ccc5c4)c3)CC2)=C(c2ccc(Cl)cc2)C1 [Example 278, 4-(4-{[2-(4-chlorophenyl)-4,4-dimethylcyclohex-1-en-1-yl]methyl}piperazin-1-yl)-N-({5-cyano-6-[2-(tetrahydro-2H-pyran-4-yl)ethoxy]pyridin-3-yl}sulfonyl)-2-(1H-pyrrolo[2,3-b]pyridin-5-yloxy)benzamide]",9.60
12,"CC1(C)CCC(CN2CCN(c3ccc(C(=O)NS(=O)(=O)c4ccc(NC5CCN(C(C)(C)C)CC5)c(S(=O)(=O)C(F)(F)F)c4)c(Oc4cnc5[nH]ccc5c4)c3)CC2)=C(c2ccc(Cl)cc2)C1 [Example 240, N-({4-[(1-tert-butylpiperidin-4-yl)amino]-3-[(trifluoromethyl)sulfonyl]phenyl}sulfonyl)-4-(4-{[2-(4-chlorophenyl)-4,4-dimethylcyclohex-1-en-1-yl]methyl}piperazin-1-yl)-2-(1H-pyrrolo[2,3-b]pyridin-5-yloxy)benzamide]",> 11.00
13,"CC1(C)CCC(CN2CCN(c3ccc(C(=O)NS(=O)(=O)c4cnc(OCC5CCOCC5)c(C#N)c4)c(Oc4cnc5[nH]ccc5c4)c3)CC2)=C(c2ccc(Cl)cc2)C1 [Example 36, 4-(4-{[2-(4-chlorophenyl)-4,4-dimethylcyclohex-1-en-1-yl]methyl}piperazin-1-yl)-N-{[5-cyano-6-(tetrahydro-2H-pyran-4-ylmethoxy)pyridin-3-yl]sulfonyl}-2-(1H-pyrrolo[2,3-b]pyridin-5-yloxy)benzamide]",10.77
14,"CC(C)N1CCC(Nc2ccc(S(=O)(=O)NC(=O)c3ccc(N4CCN(CC5=C(c6ccc(Cl)cc6)CC(C)(C)CC5)CC4)cc3Oc3cnc4[nH]ccc4c3)cc2[N+](=O)[O-])CC1 [Example 226, 4-(4-{[2-(4-chlorophenyl)-4,4-dimethylcyclohex-1-en-1-yl]methyl}piperazin-1-yl)-N-({4-[(1-isopropylpiperidin-4-yl)amino]-3-nitrophenyl}sulfonyl)-2-(1H-pyrrolo[2,3-b]pyridin-5-yloxy)benzamide]",9.86
15,"CC1(C)CCC(CN2CCN(c3ccc(C(=O)NS(=O)(=O)c4ccc(NCC5CCOCC5)c([N+](=O)[O-])c4)c(Oc4ccc5[nH]ccc5c4)c3)CC2)=C(c2ccc(Cl)cc2)C1 [Example 18, 4-(4-{[2-(4-chlorophenyl)-4,4-dimethylcyclohex-1-en-1-yl]methyl}piperazin-1-yl)-2-(1H-indol-5-yloxy)-N-({3-nitro-4-[(tetrahydro-2H-pyran-4-ylmethyl)amino]phenyl}sulfonyl)benzamide]",10.77
16,"CC1(C)CCC(CN2CCN(c3ccc(C(=O)NS(=O)(=O)c4ccc(OCC5CN(C6CC6)CCO5)c([N+](=O)[O-])c4)c(Oc4cnc5[nH]ccc5c4)c3)CC2)=C(c2ccc(Cl)cc2)C1 (centres unmarked) [Example 354, 4-(4-{[2-(4-chlorophenyl)-4,4-dimethylcyclohex-1-en-1-yl]methyl}piperazin-1-yl)-N-({4-[(4-cyclopropylmorpholin-2-yl)methoxy]-3-nitrophenyl}sulfonyl)-2-(1H-pyrrolo[2,3-b]pyridin-5-yloxy)benzamide]",11.00
17,"COc1cccc(CNc2ccc(S(=O)(=O)NC(=O)c3ccc(N4CCN(CC5=C(c6ccc(Cl)cc6)CC(C)(C)CC5)CC4)cc3Oc3cnc4[nH]ccc4c3)cc2[N+](=O)[O-])c1 [Example 176, 4-(4-{[2-(4-chlorophenyl)-4,4-dimethylcyclohex-1-en-1-yl]methyl}piperazin-1-yl)-N-({4-[(3-methoxybenzyl)amino]-3-nitrophenyl}sulfonyl)-2-(1H-pyrrolo[2,3-b]pyridin-5-yloxy)benzamide]",10.64
18,"CC1(C)CCC(CN2CCN(c3ccc(C(=O)NS(=O)(=O)c4ccc(NCC5CN(C6COC6)CCO5)c(S(=O)(=O)C(F)(F)F)c4)c(Oc4cnc5[nH]ccc5c4)c3)CC2)=C(c2ccc(Cl)cc2)C1 (centres unmarked) [Example 241, 4-(4-{[2-(4-chlorophenyl)-4,4-dimethylcyclohex-1-en-1-yl]methyl}piperazin-1-yl)-N-({4-({[4-(oxetan-3-yl)morpholin-2-yl]methyl}amino)-3-[(trifluoromethyl)sulfonyl]phenyl}sulfonyl)-2-(1H-pyrrolo[2,3-b]pyridin-5-yloxy)benzamide]",> 11.00
19,"CN(C)CC(=O)N1CCO[C@@H](COc2ncc(S(=O)(=O)NC(=O)c3ccc(N4CCN(CC5=C(c6ccc(Cl)cc6)CC(C)(C)CC5)CC4)cc3Oc3cnc4[nH]ccc4c3)cc2Cl)C1 [Example 247, N-[(5-chloro-6-{[(2R)-4-(N,N-dimethylglycyl)morpholin-2-yl]methoxy}pyridin-3-yl)sulfonyl]-4-(4-{[2-(4-chlorophenyl)-4,4-dimethylcyclohex-1-en-1-yl]methyl}piperazin-1-yl)-2-(1H-pyrrolo[2,3-b]pyridin-5-yloxy)benzamide]",10.72

# Same assay, conditions: Table 5, direct comparison Z=N vs Z=C analogs; read-out: Bcl-2 FRET ki
row,SMILES,pKi
1,"CC1(C)CCC(CN2CCN(c3ccc(C(=O)NS(=O)(=O)c4ccc(NCC5CCOCC5)c([N+](=O)[O-])c4)c(Oc4ccc5[nH]ccc5c4)c3)CC2)=C(c2ccc(Cl)cc2)C1 [Example 18, 4-(4-{[2-(4-chlorophenyl)-4,4-dimethylcyclohex-1-en-1-yl]methyl}piperazin-1-yl)-2-(1H-indol-5-yloxy)-N-({3-nitro-4-[(tetrahydro-2H-pyran-4-ylmethyl)amino]phenyl}sulfonyl)benzamide]",10.77
